Source: patent US20240053368A1, “METHOD FOR EVALUATING BLOOD PARAMETERS” (SEDICIDODICI S.R.L., priority 2020, published 2024)

Key:
[1] = system: platelets (platelet aggregate formation); assay: ex-vivo dynamic evaluation of the coagulation process in a whole-blood sample under flow: platelet aggregate formation; parameters: species or system human; settings: mean value, blood of subjects under the therapy, 8-bit acquisition system
From the text: According to some embodiments, the method of the invention comprises the following steps: • a) providing a whole-blood sample taken from a subject and added with an anti-coagulant substance; • b) treating the blood sample of step a) with a solution consisting of fluorescent probes for marking platelets and fibrin capable of binding more or less specifically to platelets and fibrin and emitting fluorescent light on two different emission frequencies and of a recalcification solution of the blood sample. […]
(§1) From a study carried out on healthy subjects not subjected to anticoagulant or antiplatelet therapy (controls), mean values of the parameters calculated as described above were obtained. […]

[2] = system: fibrin (fibrin formation); assay: ex-vivo dynamic evaluation of the coagulation process in a whole-blood sample under flow: fibrin formation; parameters: species or system human; settings: mean value
From the text: According to some embodiments, the method of the invention comprises the following steps: • a) providing a whole-blood sample taken from a subject and added with an anti-coagulant substance; • b) treating the blood sample of step a) with a solution consisting of fluorescent probes for marking platelets and fibrin capable of binding more or less specifically to platelets and fibrin and emitting fluorescent light on two different emission frequencies and of a recalcification solution of the blood sample. The two aforesaid solutions can also be combined in a single solution or single reagent; • c) introducing said recalcified blood sample into an analytical device having at least one perfusion chamber, in which at least one wall consists of a transparent material comprising a cytoadhesive substance, the blood sample being made to flow into the perfusion chamber in known and measurable flow conditions; • d) during the blood flow in the perfusion chamber, alternately acquiring at least two series of fluorescence images, so that at least one series of fluorescence images is acquired at an emission wavelength characteristic of the fluorescent probe for platelets and at least one other series of fluorescence images is acquired at another emission wavelength characteristic of the fluorescent probe for fibrin; • e) binarizing the pixels of the acquired images for the platelets and for the fibrin, so as to generate a first curve of area covered by illuminated pixels vs. time (t) for the formation of a platelet aggregate and a second curve of area covered by illuminated pixels vs. time for the fibrin formation; • f) generating a first curve of average fluorescence intensity vs. time for the formation of the platelet aggregate and a second curve of average fluorescence intensity vs. time for the fibrin formation; • the method further comprising at least one of the following steps: • g) generating a first integrated density curve defined as the product of area and fluorescence intensity vs. time for the formation of the platelet aggregate and a second integrated density curve defined as the product of area and fluorescence intensity vs. time for the fibrin formation; • h) generating a curve of particle number vs. time, in which the number of particles is given by the number of platelet aggregates consisting of more than 2 illuminated pixels; • i) generating a curve of particle size vs. time, in which the particle size is given by the average size of the platelet aggregates consisting of more than 2 illuminated pixels; • j) generating values of maximum slope, defined as the relative maximum points of the first derivative function calculated for the curves of the parameter obtained in one or more of steps e), f), g), h) and i); • k) generating values of maximum acceleration, defined as the relative maximum points of the second derivative function calculated for the curves of the parameter obtained in one or more of steps e), f), g), h) and i); • l) generating values of F/P ratio, defined as the ratio of the AUCs of fibrin to the AUCs of the platelets of the parameter obtained in one or more of steps e), f) and g); • the method further comprising the steps of: • m) generating a lag time value representing the fibrin formation time defined as the time corresponding to the first occurrence of five consecutive images in which the value of the measured area related to fibrin is >1% of the maximum peak value of the curve; • n) generating the AUC (Area Under the Curve) values given by the area under the curve of the parameter obtained in one or more of steps e), f), g), h) and i).
as §1

SMILES: CC(=O)Oc1ccccc1C(=O)O [ASA, acetylsalicylic acid]
- Platelets AUC Area ([1]; area under the curve of the area curve): 3.4 ×10^7
- Platelets AUC MGV ([1]; area under the curve of the fluorescence intensity curve): 2.0 ×10^4
- Platelets AUC ID ([1]; area under the curve of the integrated density curve): 3.0 ×10^9
- F/P Area ([2]; AUC Area ratio of fibrin to platelets, subjects under the therapy): 1.0
- F/P ID ([2]; AUC ID ratio of fibrin to platelets, subjects under the therapy): 2.2
- F/P MGV ([2]; AUC MGV ratio of fibrin to platelets, subjects under the therapy): 1.2
- Fibrin AUC Area ([2]; blood of subjects under the therapy, area under the curve of the area curve, 8-bit acquisition system): 3.0 ×10^7
- Fibrin AUC MGV ([2]; blood of subjects under the therapy, area under the curve of the fluorescence intensity curve, 8-bit acquisition system): 2.0 ×10^4
- Fibrin AUC ID ([2]; blood of subjects under the therapy, area under the curve of the integrated density curve, 8-bit acquisition system): 4.3 ×10^9
